By Cmax is commonly meant the peak of the concentration-time curve. Usually Tmax stands for the time at which the peak concentration occurs. As a reminder, the AUC(0-inf) is total exposure, with the tail of the curve extrapolated. High values mean high exposure, low ones low exposure. A word on the IC50: it is the midpoint of a concentration-inhibition curve. For orientation: clearance means the rate of elimination divided by the concentration. A low value points to a low capacity for elimination. The fraction unbound is free concentration divided by total concentration. Usually bioavailability stands for dose-corrected exposure relative to a reference, in per cent. As a reminder, the amount remaining is the share of the starting amount still present when the sample was taken. Read a low amount remaining as a greater loss. Usually half-life stands for the time needed for the level to fall by half in the phase considered. As usually defined, the solubility is the dissolved amount per volume that the medium holds.

The values that follow come from ChEMBL document CHEMBL4387706, “Discovery of Novel Spiroindoline Derivatives as Selective Tankyrase Inhibitors” (J Med Chem, 2019).

Each structure is given as a SMILES string. ≈ marks a conversion by molar mass, not a printed value. Calls of active or inactive are those of the source.

Data set [1] can be described thus: Toxicity in mouse xenografted with human COLO320DM cells assessed as body weight loss at 40 mg/kg, ip administered twice daily for 11 days. Type of data set: organism-based. Particulars: in vivo, 264 h.
Data set [2] in a line: Cmax in Sprague-Dawley rat at 3 mg/kg, po. More on the design: dose 3 mg/kg, route oral. Particulars: in vivo. Format: ADME, organism-based.
The nature of data set [3]: Initial plasma concentration in Sprague-Dawley rat at 1 mg/kg, iv. Type of data set: ADME, organism-based.
The species named for data set [4] is Homo sapiens. The experiment in a line: Effect on hippo signaling protein in human COLO320DM cells assessed as change in CTGF expression at 0.1 to 1 uM measured after 48 hrs by RT-PCR analysis. Type of data set: cell-based.
Data set [5] in a line: Tmax in Sprague-Dawley rat at 3 mg/kg, po. Format: ADME, organism-based. Particulars: in vivo.
The nature of data set [6]: AUC (infinity) in Sprague-Dawley rat at 1 mg/kg, iv. Type of data set: ADME, organism-based. Particulars: in vivo. More on the design: dose 1 mg/kg, route intravenous, time infinity.
A short description of data set [7]: Volume of distribution at steady state in Sprague-Dawley rat at 1 mg/kg, iv. Type of data set: ADME, organism-based. Particulars: in vivo, read-out: Vdss.
The target in data set [8] is Poly [ADP-ribose] polymerase 1 (Homo sapiens, UniProt P09874).
Chain of Poly [ADP-ribose] polymerase 1 (P09874 whole entry): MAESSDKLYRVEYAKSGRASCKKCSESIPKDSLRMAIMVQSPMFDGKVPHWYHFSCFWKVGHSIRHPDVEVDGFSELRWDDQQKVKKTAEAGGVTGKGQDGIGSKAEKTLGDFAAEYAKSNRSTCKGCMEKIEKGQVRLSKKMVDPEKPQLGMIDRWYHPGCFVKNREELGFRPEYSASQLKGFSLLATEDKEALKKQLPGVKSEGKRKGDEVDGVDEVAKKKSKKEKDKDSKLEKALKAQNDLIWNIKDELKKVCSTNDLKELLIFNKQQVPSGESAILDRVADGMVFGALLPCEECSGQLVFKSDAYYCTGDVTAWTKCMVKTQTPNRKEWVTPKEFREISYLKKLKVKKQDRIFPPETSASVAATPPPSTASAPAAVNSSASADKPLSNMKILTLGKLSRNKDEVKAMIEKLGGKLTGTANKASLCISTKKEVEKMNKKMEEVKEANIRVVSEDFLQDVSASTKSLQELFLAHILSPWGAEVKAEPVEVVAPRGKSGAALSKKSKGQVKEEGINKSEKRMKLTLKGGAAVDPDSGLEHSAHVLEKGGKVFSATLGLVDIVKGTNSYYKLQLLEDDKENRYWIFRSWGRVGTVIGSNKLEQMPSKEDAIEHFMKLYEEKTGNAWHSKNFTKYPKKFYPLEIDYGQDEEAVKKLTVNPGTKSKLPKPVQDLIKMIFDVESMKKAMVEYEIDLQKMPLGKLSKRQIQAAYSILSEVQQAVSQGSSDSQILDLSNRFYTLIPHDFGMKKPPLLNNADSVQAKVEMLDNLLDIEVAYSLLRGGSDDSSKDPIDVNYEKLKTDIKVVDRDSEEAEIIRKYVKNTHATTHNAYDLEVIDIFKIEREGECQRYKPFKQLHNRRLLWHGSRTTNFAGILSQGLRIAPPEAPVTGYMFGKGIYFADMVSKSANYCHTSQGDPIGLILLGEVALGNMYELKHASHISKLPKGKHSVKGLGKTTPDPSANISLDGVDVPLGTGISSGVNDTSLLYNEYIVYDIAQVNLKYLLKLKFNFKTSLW
Description: Inhibition of recombinant human PARP1 expressed in Escherichia coli assessed as reduction in auto-PARylation using histone as substrate measured after 45 mins in presence of biotinylated-NAD+ by ELISA
Data set [9] can be described thus: Total clearance in Sprague-Dawley rat at 1 mg/kg, iv. Type of data set: ADME, organism-based. Particulars: in vivo.
A short description of data set [10]: Protein binding in mouse serum assessed as unbound fraction at 1 uM measured after 24 hrs by LC-MS/MS analysis. Type of data set: ADME, cell-free.
Data set [11] in a line: Protein binding in human serum assessed as unbound fraction at 1 uM measured after 24 hrs by LC-MS/MS analysis. Type of data set: ADME, cell-free.
Data set [12] can be described thus: Permeability of the compound by PAMPA. Format: ADME. Particulars: read-out: permeability. A general note: The PAMPA barrier holds no transporters, so it reflects passive diffusion.
A short description of data set [13]: Oral bioavailability in Sprague-Dawley rat at 3 mg/kg. Type of data set: ADME, organism-based. Particulars: in vivo.
Data set [14] can be described thus: in vitro. Particulars: mouse, liver microsomes. A general note: Liver microsomes are vesicles of endoplasmic reticulum, rich in cytochrome P450 enzymes.
Description: Stability in mouse liver microsomes assessed as parent compound remaining at 1 uM measured after 30 mins in presence of NADPH by LC-MS/MS analysis
Data set [15] concerns the target Poly [ADP-ribose] polymerase 2 (Homo sapiens, UniProt Q9UGN5). Put plainly: Inhibition of human recombinant N-terminal GST-tagged PARP2 (2 to 583 residues) expressed in baculovirus infected Sf9 cells assessed as reduction in auto-PARylation using histone as substrate measured after 45 mins in presence of biotinylated-NAD+ by ELISA.
Another data set relates to COLO 320DM. Put plainly: Antitumor activity against human COLO320DM cells xenografted in mouse assessed as tumor growth inhibition at 40 mg/kg, ip administered twice daily for 11 days relative to control. Type of data set: functional. Particulars: 264 h, read-out: TGI.
Data set [16] is described as follows: AUC (infinity) in Sprague-Dawley rat at 3 mg/kg, po. Particulars: in vivo. Type of data set: ADME, organism-based. More on the design: dose 3 mg/kg, time infinity, route oral.
The nature of data set [17]: Half life in Sprague-Dawley rat at 1 mg/kg, iv. Format: ADME, organism-based. Particulars: in vivo.
The species entered for data set [18] is Homo sapiens. Put plainly: Effect on hippo signaling protein in human COLO320DM cells assessed as change in CYR61 expression at 0.1 to 1 uM measured after 48 hrs by RT-PCR analysis. Format: cell-based.
Data set [19] deals with T1, Protein mono-ADP-ribosyltransferase PARP10 (Homo sapiens, UniProt Q53GL7).
T1 sequence (Q53GL7 whole entry): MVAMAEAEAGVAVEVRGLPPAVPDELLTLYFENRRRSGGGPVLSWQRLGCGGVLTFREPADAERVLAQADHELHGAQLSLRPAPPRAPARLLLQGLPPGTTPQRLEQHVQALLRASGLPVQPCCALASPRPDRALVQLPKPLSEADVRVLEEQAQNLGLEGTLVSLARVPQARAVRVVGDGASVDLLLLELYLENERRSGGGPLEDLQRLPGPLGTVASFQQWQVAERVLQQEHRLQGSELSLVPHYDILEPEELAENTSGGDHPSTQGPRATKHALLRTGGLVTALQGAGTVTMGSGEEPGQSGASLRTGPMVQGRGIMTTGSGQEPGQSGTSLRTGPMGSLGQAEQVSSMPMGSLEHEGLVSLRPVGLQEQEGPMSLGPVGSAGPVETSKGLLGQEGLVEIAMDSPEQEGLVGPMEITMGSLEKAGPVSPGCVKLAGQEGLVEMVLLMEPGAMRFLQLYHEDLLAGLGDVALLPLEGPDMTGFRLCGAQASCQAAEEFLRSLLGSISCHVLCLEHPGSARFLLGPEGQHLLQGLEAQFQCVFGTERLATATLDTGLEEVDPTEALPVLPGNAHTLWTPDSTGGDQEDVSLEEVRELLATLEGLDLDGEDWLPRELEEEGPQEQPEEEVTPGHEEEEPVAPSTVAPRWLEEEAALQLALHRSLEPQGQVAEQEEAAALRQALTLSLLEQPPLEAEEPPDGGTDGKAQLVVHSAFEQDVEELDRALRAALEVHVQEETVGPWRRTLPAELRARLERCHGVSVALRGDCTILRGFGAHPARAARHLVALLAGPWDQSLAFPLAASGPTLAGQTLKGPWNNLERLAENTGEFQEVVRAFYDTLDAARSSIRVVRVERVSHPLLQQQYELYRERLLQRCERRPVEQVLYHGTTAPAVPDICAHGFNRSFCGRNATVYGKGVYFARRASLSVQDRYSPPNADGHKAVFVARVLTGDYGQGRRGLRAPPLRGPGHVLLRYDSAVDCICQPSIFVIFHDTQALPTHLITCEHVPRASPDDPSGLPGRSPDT
The experiment in a line: Inhibition of human recombinant N-terminal TEV-cleavgae site-fused-FLAG/Polyhis-tagged PARP10 […] expressed in Escherichia coli assessed as reduction in auto-PARylation using histone as substrate measured after 45 mins in presence of biotinylated-NAD+ by ELISA. Background: ELISA stands for enzyme-linked immunosorbent assay.

Another data set is described as follows: physchem. Particulars: phosphate buffer, pH 7.4.
Data set [20] in a line: in vitro. Particulars: human, liver microsomes.
Description: Stability in human liver microsomes assessed as parent compound remaining at 1 uM measured after 30 mins in presence of NADPH by LC-MS/MS analysis
The species entered for data set [21] is Homo sapiens. Put plainly: Effect on hippo signaling protein in human COLO320DM cells assessed as change in AMOTL2 expression at 0.1 to 1 uM measured after 48 hrs by RT-PCR analysis. Format: cell-based.

Chain of Poly [ADP-ribose] polymerase 2 (Q9UGN5 whole entry, the tested form may be a part): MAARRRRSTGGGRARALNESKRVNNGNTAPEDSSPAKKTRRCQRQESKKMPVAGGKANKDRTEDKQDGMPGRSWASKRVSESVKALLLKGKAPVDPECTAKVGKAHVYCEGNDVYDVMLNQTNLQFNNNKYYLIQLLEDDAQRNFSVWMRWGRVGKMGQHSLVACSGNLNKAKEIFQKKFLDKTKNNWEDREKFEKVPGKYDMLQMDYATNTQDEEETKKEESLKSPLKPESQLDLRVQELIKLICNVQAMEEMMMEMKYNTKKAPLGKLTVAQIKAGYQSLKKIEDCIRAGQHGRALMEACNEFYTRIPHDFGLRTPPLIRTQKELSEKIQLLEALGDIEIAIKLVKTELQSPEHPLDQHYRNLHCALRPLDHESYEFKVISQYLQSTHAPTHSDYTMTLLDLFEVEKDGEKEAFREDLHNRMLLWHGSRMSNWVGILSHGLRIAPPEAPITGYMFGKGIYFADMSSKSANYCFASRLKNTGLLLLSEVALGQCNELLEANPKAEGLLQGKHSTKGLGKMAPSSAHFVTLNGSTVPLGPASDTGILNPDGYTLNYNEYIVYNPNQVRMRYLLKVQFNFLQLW

As to `CS(=O)(=O)c1ccc(-c2nnc(/C=C/c3nnc(-c4ccc(C#N)cc4)o3)n2-c2ccccc2Cl)nc1`, the Activity entry in data set [1] is recorded as “Toxic”. The peak concentration (Cmax) in [2] was determined as 230 nM. In data set [3], this compound came in with a C0 of 1540 nM. Also, the outcome in the data set listed under Homo sapiens [4], in the data set filed under Homo sapiens [18] and in the data set filed under Homo sapiens [21] was inactive. Further, the Tmax in data set [5] stood at 4 h. Besides, the AUC(0-inf) in data set [6] is 0.79 µM·h; in data set [16] it was 2.33 µM·h. Besides, the Vd in data set [7] stood at 1.79 L/kg. For the same compound, the IC50 in data set [8], in data set [15] and in data set [19] was more than 100 µM in each case. Also, the clearance in data set [9] was 39.7 mL/min/kg. Moreover, the fraction unbound at 24 h, 1 µM came to 0.035 in data set [10] and 0.028 in data set [11]. Further, the Papp in data set [12] is 11.4 ×10⁻⁶ cm/s. The compound also registered a bioavailability in data set [13] of 97.8%. In addition, the fraction remaining at 0.5 h, 1 µM in the data set “in vitro [14]” turned out to be 95.8%; in the data set “in vitro [20]”, 100%. Moreover, the inhibition in vivo at 40 mg/kg in the data set on COLO 320DM was found to be 48%. Further, in [17], the half-life was 3.3 h. Moreover, the solubility at 1 h, 200 µM in “physchem” is 1.5 µg/mL (≈ 2.83 µM).
